Source: patent US20260256792A1, “TREATMENT OF CHRONIC SPONTANEOUS URTICARIA BY ADMINISTERING (R)-2-[3-[4-AMINO-3-(2-FLUORO-4-PHENOXY-PHENYL)PYRAZOLO[3,4-D]PYRIMIDIN-1-YL]PIPERIDINE-1-CARBONYL]-4-METHYL-4-[4-(OXETAN-3-YL)PIPERAZIN-1-YL]PENT-2-ENENITRILE” (priority 2023, published 2026)

Tested on: moderate-to-severe chronic spontaneous urticaria (CSU)
Test: Phase 2 CSU study: urticaria activity score over 7 days (UAS7)
Assay type: in vivo, human
Conditions: for Change from Baseline in UAS7 at Week 12: Mean (SD) / Change from Baseline in UAS7 at Week 12: LS Mean Diff vs. placebo (95% CI) / Change from Baseline in UAS7 at Week 12: LS Mean (SE): Omalizumab-Naïve; for Imputed non-responder n (%), UAS7 = 0 / Imputed non-responder n (%), UAS7 ≤6 / Non-responder n (%), UAS7 = 0 / Non-responder n (%), UAS7 ≤6 / OR for rilzabrutinib vs. placebo, UAS7 = 0 / OR for rilzabrutinib vs. placebo, UAS7 ≤6 / RRD (%) for rilzabrutinib vs. placebo, UAS7 = 0 / RRD (%) for rilzabrutinib vs. placebo, UAS7 ≤6 / Responder n (%), UAS7 = 0 / Responder n (%), UAS7 ≤6: Omalizumab-naïve
Source text: The study comprises a 12 week, randomized, double-blind, placebo-controlled, multi-center, dose-ranging efficacy and safety phase, followed by a 40 week open label extension (OLE) phase (see FIG. 1). The study consists of three phases and an optional OLE phase. […] Clinically, CSU is characterized by the spontaneous and recurrent appearance of pruritic hives. The proposed primary endpoints were the UAS7 at Week 12 in EU and EU reference countries and the ISS7 in the US. Regardless of where a participant was from, all assessments were the same. The UAS7 score is a composite score containing both the HSS7 and the ISS7. This allowed a global assessment of the two key components of urticaria: hives and itch. […] The UAS is a validated PRO measure. […] The daily UAS scores range from 0 to 6 point/day. […] Patients were to complete the UAS using the e-diary. […] The following secondary endpoints were to be analyzed using the same approach as for the primary endpoint: • Change from baseline in UAS7 at Week 4 • Change from baseline in UAS7 at Week 12 (for US and US reference countries) • Change from baseline in ISS7 at Week 12 (except US and US reference countries) • Change from baseline in HSS7 at Week 12 The following responder secondary endpoints were to be analyzed using the Cochran-Mantel-Haenszel test adjusted by region: • Proportion of participants with UAS7<6 at Week 12 • Proportion of participants with UAS7=0 at Week 12 Participants who received selected prohibited medications and/or rescue medications were to be considered as non-responders for time points after the medication usage. For other participants, all available data including those collected during the off-treatment period were to be used to determine the responder/non-responder status. Missing data were to be considered as non-responders.

[1] = Region Latin America, 400 mg TID
[2] = Region Western Countries, 400 mg BID
[3] = Region Western Countries, 400 mg QPM
[4] = Region Western Countries, 400 mg TID

SMILES: CC(C)(C=C(C#N)C(=O)N1CCC[C@@H](n2nc(-c3ccc(Oc4ccccc4)cc3F)c3c(N)ncnc32)C1)N1CCN(C2COC2)CC1 [rilzabrutinib, (R)-2-[3-[4-amino-3-(2-fluoro-4-phenoxy-phenyl)pyrazolo[3,4-d]pyrimidin-1-yl]piperidine-1-carbonyl]-4-methyl-4-[4-(oxetan-3-yl)piperazin-1-yl]pent-2-enenitrile]
- Change from Baseline in UAS7 at Week 12: Mean (SD) (Region Latin America, 400 mg QPM): −13.28 (10.78)
- Change from Baseline in UAS7 at Week 12: LS Mean Diff vs. placebo (95% CI) [1]: 0.38 (−10.12, 10.88)
- Change from Baseline in UAS7 at Week 12: Mean (SD) [1]: −14.07 (12.07)
- Change from Baseline in UAS7 at Week 12: LS Mean (SE) [2]: −20.19 (3.23)
- Change from Baseline in UAS7 at Week 12: LS Mean Diff vs. placebo (95% CI) [2]: −12.21 (−21.37, −3.06)
- Change from Baseline in UAS7 at Week 12: Mean (SD) [2]: −20.62 (10.65)
- Change from Baseline in UAS7 at Week 12: LS Mean (SE) [3]: −8.74 (4.03)
- Change from Baseline in UAS7 at Week 12: Mean (SD) [3]: −10.70 (8.61)
- Change from Baseline in UAS7 at Week 12: LS Mean (SE) [4]: −19.49 (3.03)
- Change from Baseline in UAS7 at Week 12: Mean (SD) [4]: −23.13 (10.61)
- Imputed non-responder n (%), UAS7 = 0 (400 mg BID, Week 1): 0 n (%)
- Imputed non-responder n (%), UAS7 ≤6 (400 mg BID, Week 1): 0 n (%)
- Non-responder n (%), UAS7 = 0 (400 mg BID, Week 1): 32 (91.4) n (%)
- Non-responder n (%), UAS7 ≤6 (400 mg BID, Week 1): 29 (82.9) n (%)
- OR for rilzabrutinib vs. placebo, UAS7 = 0 (400 mg BID, Week 1): 3.242
- OR for rilzabrutinib vs. placebo, UAS7 ≤6 (400 mg BID, Week 1): 3.183
- RRD (%) for rilzabrutinib vs. placebo, UAS7 = 0 (400 mg BID, Week 1): 5.6 %
- RRD (%) for rilzabrutinib vs. placebo, UAS7 ≤6 (400 mg BID, Week 1): 9.9 %
- Responder n (%), UAS7 = 0 (400 mg BID, Week 1): 3 (8.6) n (%)
- Responder n (%), UAS7 ≤6 (400 mg BID, Week 1): 6 (17.1) n (%)
- Imputed non-responder n (%), UAS7 = 0 (400 mg BID, Week 2): 1 (2.9) n (%)
- Imputed non-responder n (%), UAS7 ≤6 (400 mg BID, Week 2): 1 (2.9) n (%)
- Non-responder n (%), UAS7 = 0 (400 mg BID, Week 2): 33 (94.3) n (%)
- Non-responder n (%), UAS7 ≤6 (400 mg BID, Week 2): 31 (88.6) n (%)
- OR for rilzabrutinib vs. placebo, UAS7 = 0 (400 mg BID, Week 2): 2.024
- OR for rilzabrutinib vs. placebo, UAS7 ≤6 (400 mg BID, Week 2): 1.917
- RRD (%) for rilzabrutinib vs. placebo, UAS7 = 0 (400 mg BID, Week 2): 2.5 %
- RRD (%) for rilzabrutinib vs. placebo, UAS7 ≤6 (400 mg BID, Week 2): 4.4 %
- Responder n (%), UAS7 = 0 (400 mg BID, Week 2): 2 (5.7) n (%)
- Responder n (%), UAS7 ≤6 (400 mg BID, Week 2): 4 (11.4) n (%)
- Imputed non-responder n (%), UAS7 = 0 (400 mg BID, Week 3): 0 n (%)
- Imputed non-responder n (%), UAS7 ≤6 (400 mg BID, Week 3): 0 n (%)
- Non-responder n (%), UAS7 = 0 (400 mg BID, Week 3): 32 (91.4) n (%)
- Non-responder n (%), UAS7 ≤6 (400 mg BID, Week 3): 27 (77.1) n (%)
- OR for rilzabrutinib vs. placebo, UAS7 = 0 (400 mg BID, Week 3): 3.036
- OR for rilzabrutinib vs. placebo, UAS7 ≤6 (400 mg BID, Week 3): 2.894
- RRD (%) for rilzabrutinib vs. placebo, UAS7 = 0 (400 mg BID, Week 3): 5.0 %
- RRD (%) for rilzabrutinib vs. placebo, UAS7 ≤6 (400 mg BID, Week 3): 13.3 %
- Responder n (%), UAS7 = 0 (400 mg BID, Week 3): 3 (8.6) n (%)
- Responder n (%), UAS7 ≤6 (400 mg BID, Week 3): 8 (22.9) n (%)
- Imputed non-responder n (%), UAS7 = 0 (400 mg BID, Week 4): 2 (5.7) n (%)
- Imputed non-responder n (%), UAS7 ≤6 (400 mg BID, Week 4): 2 (5.7) n (%)
- Non-responder n (%), UAS7 = 0 (400 mg BID, Week 4): 32 (91.4) n (%)
- Non-responder n (%), UAS7 ≤6 (400 mg BID, Week 4): 25 (71.4) n (%)
- OR for rilzabrutinib vs. placebo, UAS7 = 0 (400 mg BID, Week 4): 1.372
- OR for rilzabrutinib vs. placebo, UAS7 ≤6 (400 mg BID, Week 4): 2.950
- RRD (%) for rilzabrutinib vs. placebo, UAS7 = 0 (400 mg BID, Week 4): 1.9 %
- RRD (%) for rilzabrutinib vs. placebo, UAS7 ≤6 (400 mg BID, Week 4): 15.8 %
- Responder n (%), UAS7 = 0 (400 mg BID, Week 4): 3 (8.6) n (%)
- Responder n (%), UAS7 ≤6 (400 mg BID, Week 4): 10 (28.6) n (%)
- Imputed non-responder n (%), UAS7 = 0 (400 mg BID, Week 5): 2 (5.7) n (%)
- Imputed non-responder n (%), UAS7 ≤6 (400 mg BID, Week 5): 2 (5.7) n (%)
- Non-responder n (%), UAS7 = 0 (400 mg BID, Week 5): 31 (88.6) n (%)
- Non-responder n (%), UAS7 ≤6 (400 mg BID, Week 5): 25 (71.4) n (%)
- OR for rilzabrutinib vs. placebo, UAS7 = 0 (400 mg BID, Week 5): 4.254
- OR for rilzabrutinib vs. placebo, UAS7 ≤6 (400 mg BID, Week 5): 6.525
- RRD (%) for rilzabrutinib vs. placebo, UAS7 = 0 (400 mg BID, Week 5): 8.1 %
- RRD (%) for rilzabrutinib vs. placebo, UAS7 ≤6 (400 mg BID, Week 5): 21.1 %
- Responder n (%), UAS7 = 0 (400 mg BID, Week 5): 4 (11.4) n (%)
- Responder n (%), UAS7 ≤6 (400 mg BID, Week 5): 10 (28.6) n (%)
- Imputed non-responder n (%), UAS7 = 0 (400 mg BID, Week 6): 2 (5.7) n (%)
- Imputed non-responder n (%), UAS7 ≤6 (400 mg BID, Week 6): 2 (5.7) n (%)
- Non-responder n (%), UAS7 = 0 (400 mg BID, Week 6): 31 (88.6) n (%)
- Non-responder n (%), UAS7 ≤6 (400 mg BID, Week 6): 26 (74.3) n (%)
- OR for rilzabrutinib vs. placebo, UAS7 = 0 (400 mg BID, Week 6): 4.048
- OR for rilzabrutinib vs. placebo, UAS7 ≤6 (400 mg BID, Week 6): 1.743
